Results as given in US8716242B2, “β-hairpin peptidomimetics” (priority 2009, dated 2014).
Read-outs that look alike come from different tables or passages of the source. Numbered stars: 1 amine (or outer) side, 2 acyl side, 3 side chain; on linkers, the order of the positions; unused ones are H or OH. Bridge positions count the residues as written; N and C are the ends. Square brackets hold non-standard residues; d marks the D form. Peptide text beside a SMILES is read from it. * marks the point of attachment. Gly(Dodecyl) = CCCCCCCCCCCC[C@H](N)C(=O)O; X2 = CCCCCCCCCC[C@@H](N[*:1])C(=O)[*:2]; Lauroyl = CCCCCCCCCCCC(=O)*; Octanoyl = CCCCCCCC(=O)*; Dab = NCC[C@H](N)C(=O)O; Dodecyl = CCCCCCCCCCCC*

Experiments:
[1] = Plasma stability in human plasma; assay type: in vitro ADME; conditions: human plasma, 37° C.; for remaining at 24 h, 10 μM: 1440 min, read-out: human pl. cpd left at 1440 min; for human pl. T1/2: up to 1440 min
Method: (§1) Percent hemolysis was calculated as follows: (OD540peptide/OD540H2O)×100%. 2.6. Plasma Stability
(§2) The stability of the peptides in human and mouse plasma was determined by applying the following method: 346.5 μL/deep well of freshly thawed human plasma (Basler Blutspendedienst) and mouse plasma (Harlan Sera-Lab, UK), respectively, were spiked with 3.5 μL/well of compound dissolved in DMSO/H2O ([…] [v/v], 1 mM, triplicate) and incubated at 37° C. At t=0, 15, 30, 60, 120, 240 and 1440 min aliquots of 50 μL were transferred to filtration plate wells containing 150 μL/well of 2% formic acid in acetonitrile. Following shaking for 2 min the occurred suspensions were filtrated by vacuum and 50 μL of each filtrate was mixed with 100 μL of 1% formic acid in H2O. After transfer to a propylene microtiter plate, the filtrates were analyzed by LC/MS as follows: Column: Waters, XBridge C18, mobile phases: (A) water+0.1% formic acid and (B) acetonitrile/water, 95/5 (v/v)+0.1% formic acid, gradient: 5%-100% (B) in 2 minutes, electrospray ionization, MRM detection (triple quadrupole). The peak areas were determined and triplicate values are averaged. The stability is expressed in percent of the initial value at t=0. (tx/t0×100). By using the TREND function of EXCEL (Microsoft Office 2003) T1/2 were determined.

[2] = Plasma stability in mouse plasma; assay type: in vitro ADME; conditions: mouse plasma, 37° C.; for remaining at 24 h, 10 μM: 1440 min, read-out: mouse pl. cpd left at 1440 min
Method: as §1, §2

human CXCR4 = biological target: T1, human CXCR4 (Homo sapiens, UniProt P61073); assay: Ca2+-assay: CXCR4-antagonizing activity (SDF-1 induced calcium mobilization); assay type: cell-based
T1 construct: expressed in transfected cells; host or cells: mouse pre-B cell line 300-19
T1 sequence (P61073 whole entry): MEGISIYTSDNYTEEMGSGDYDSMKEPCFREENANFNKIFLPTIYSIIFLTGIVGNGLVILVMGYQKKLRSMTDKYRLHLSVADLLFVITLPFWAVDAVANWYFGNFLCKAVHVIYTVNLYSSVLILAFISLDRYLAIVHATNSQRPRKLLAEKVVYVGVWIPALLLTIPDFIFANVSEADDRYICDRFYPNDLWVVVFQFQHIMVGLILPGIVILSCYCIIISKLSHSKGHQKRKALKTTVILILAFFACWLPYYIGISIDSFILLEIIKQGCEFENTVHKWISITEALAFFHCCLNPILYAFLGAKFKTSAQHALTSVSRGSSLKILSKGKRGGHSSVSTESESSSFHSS
Source text: 2.3. Ca^2+-Assay: CXCR4-Antagonizing Activity of the Peptides
Increases in intracellular calcium were monitored using a Flexstation 384 (Molecular Devices, Sunnyvale, Calif.) to assay the peptides for CXCR4 antagonism in a mouse pre-B cell line 300-19 stably transfected with human CXCR4 (E. Oberlin, A. Amara, F. Bachelerie, C. Bessia, J.-L. Virelizier, F. Arenzana-Seisdedos, O, Schwartz, J.-M. Heard, I. Clark-Lewis, D. F. Legler, M. Loetscher, M. Baggiolini, B. Moser, Nature 1996, 382, 833-835; M. Loetscher, T. Geiser, T. O'Reilly, R. Zwalen, M. Baggiolini, B. Moser, J. Biol. Chem. 1994, 269, 232-237; M. D'Apuuo, A. Rolink, M. Loetscher, J. A. Hoxie, I. Clark-Lewis, F. Melchors, M. Baggiolini, B. Moser, Eur. J. Immunol. 1997, 27, 1788-1793). The cells were batch loaded with the Calcium 4 Assay kit (Molecular Devices) in assay buffer (Hanks Balanced salt solution [HBSS], 20 mM HEPES, pH 7.4, 0.1% BSA) for 1 h at room temperature and labeled cells were dispensed into black well assays plates (Costar No. 3603). Calcium mobilization induced by stromal-derived factor-1 (SDF-1) was measured in the Flexstation 384 (excitation: 485 nm; emission: 525 nm) for 90 seconds. Antagonist activity of peptides was determined by spiking the cells with compounds prior to SDF-1 addition. Dose response curves (compound concentration versus % maximum response for SDF-1) were determined for each antagonist and IC50 values were calculated by fitting the data to a four parameter logistic equation using SoftmaxPro 4.8 (Molecular Devices).

[3] = Cytotoxicity, MTT reduction assay, COS-7 cells; assay type: cell-based; conditions: African green monkey, COS-7 cells (CRL-1651), 12.5-50 μM
Method: (§3) Mouse pre-B cells were cultured in RPMI1640 plus 5% FBS, antibiotic/antimycotic, non essential amino acid, 50 μM β-mercaptoethanol and 1 mM natrium pyruvate. HELA cells were maintained in RPMI1640 plus 10% FBS, pen/strept and 2 mM L-glutamine. Cos-7 cells were grown in DMEM medium with […] glucose supplemented with 10% FCS, pen/strept and 2 mM L-glutamine. All cell lines were grown at 37° C. at 5% CO2. Cell media, media supplements, PBS-buffer, HEPES, antibiotic/antimycotic, pen/strept, non essential amino acid, L-glutamine, β-mercaptoethanol and sera were purchased from Gibco (Pailsey, UK). All fine chemicals were supplied by Merck (Darmstadt, Germany).
(§4) The cytotoxicity of the peptides to HELA cells (Acc57) and COS-7 cells (CRL-1651) was determined using the MTT reduction assay (T. Mossman, J. Immunol. Meth. 1983, 65, 55-63; M. V. Berridge, A. S. Tan, Arch. Biochem. Biophys. 1993, 303, 474-482). Briefly, the method was as follows: 4000 HELA cells/well and 3400 COS-7 cells/well were seeded and grown in 96-well microtiter plates for 24 h at 37° C. at 5% CO2. Thereafter, time zero (Tz) was determined by MTT reduction (see below). The supernatant of the remaining wells was discarded, and fresh medium and compounds in serial dilutions (12.5, 25 and 50 μM, triplicates) were pipetted into the wells. After incubation of the cells for 48 h at 37° C. at 5% CO2 the supernatant was discarded again and 100 μL MTT reagent (0.5 mg/mL in RPMI1640 and DMEM, respectively)/well was added. Following incubation at 37° C. for 2-4 h the media were aspirated and the cells were spiked (100 μL isopropanol/well). The absorbance of the solubilized formazan was measured at 595 nm (OD595peptide). For each concentration averages were calculated from triplicates. The percentage of growth was calculated as follows: (OD595peptide-OD595Tz-OD595Empty well)/(OD595Tz-OD595Empty well)×100%. The GI50 (Growth Inhibition) concentrations were calculated for each peptide by using a trend line function for the concentrations (50, 25, 12.5 and 0 μM), the corresponding percentages and the value 50, (=TREND (C50: C0, %50:%0,50).

[4] = system: human red blood cells (hRBC); assay: Hemolysis of human red blood cells; assay type: cell-based; conditions: 20% hRBC, 1 h, 37° C.
Method: The peptides were tested for their hemolytic activity against human red blood cells (hRBC). Fresh hRBC were washed three times with phosphate buffered saline (PBS) and centrifuged for 10 min at 2000×g. Compounds (100 μM) were incubated with 20% hRBC (v/v) for 1 h at 37° C. and shaking at 300 rpm. The final erythrocyte concentration was approximately 0.9×10^9 cells/mL. A value of 0% and 100% cell lyses, respectively, was determined by incubation of hRBC in the presence of PBS containing 0.001% acetic acid and 2.5% Triton X-100 in H2O, respectively. The samples were centrifuged, the supernatants were 8-fold diluted in PBS buffer and the optical densities (OD) were measured at 540 nm. The 100% lyses value (OD540H2O) gave an OD540 of approximately 0.5-1.0.
as §1

[5] = Cytotoxicity, MTT reduction assay, HELA cells; assay type: cell-based; conditions: human, HELA cells (Acc57), 12.5-50 μM
Method: as §3, §4

[6] = mouse pre-B cell line 300-19 transfected with human CXCR4, SDF-1 induced Ca2+ mobilization, read-out: IC50% [nM] ± SD, CXCR4 receptor

| SMILES | remaining at 24 h, 10 μM [1] [%] | human pl. T1/2 [1] [h] | remaining at 24 h, 10 μM [2] [%] | mouse pl. T1/2 ([2]; up to 1440 min) [h] | IC50 (human CXCR4; [6]) [nM] | GI50 at 48 h [3] [µM] | Hemolysis at 100 μM [4] [%] | GI50 at 48 h [5] [µM] | half-life at 10 μM ([2]; up to 1440 min, read-out: mouse pl. T1/2) [h] | IC50 (human CXCR4) [nM] |
| --- | --- | --- | --- | --- | --- | --- | --- | --- | --- | --- |
| CCCCCCCCCCCC(=O)NCC[C@@H]1NC(=O)[C@H](Cc2ccc(O)cc2)NC(=O)[C@@H]2CCCN2C(=O)[C@H]2CCCN2C(=O)[C@H](CCCCN)NC(=O)[C@H](CCC(N)=O)NC(=O)[C@H](Cc2ccc(O)cc2)NC(=O)[C@@H]2CSSC[C@H](NC(=O)[C@H](C)NC1=O)C(=O)N[C@@H](CCCNC(=N)N)C(=O)N[C@@H](C)C(=O)N1CCC[C@@H]1C(=O)N[C@@H](CCN)C(=O)N[C@@H](CCCNC(=N)N)C(=O)N[C@@H](Cc1ccc(O)cc1)C(=O)N2 [Ex. 1] (cyclo(Y[Dab](Lauroyl)ACRA[dP][Dab]RYCYQK[dP]P); disulfide 4-11) | 87 | 24 | 77 | 24 | 94 ± 2.1 | > 50 | 2.6 | > 28 |  |  |
| CCCCCCCCCCCC[C@@H]1NC(=O)[C@H](Cc2c[nH]cn2)NC(=O)[C@H](Cc2ccc(O)cc2)NC(=O)[C@@H]2CCCN2C(=O)[C@H]2CCCN2C(=O)[C@H](CCCCN)NC(=O)[C@H](CCC(N)=O)NC(=O)[C@H](Cc2ccc(O)cc2)NC(=O)[C@@H]2CSSC[C@H](NC1=O)C(=O)N[C@@H](CCCNC(=N)N)C(=O)N[C@@H](C)C(=O)N1CCC[C@@H]1C(=O)N[C@@H](CCN)C(=O)N[C@@H](CCCNC(=N)N)C(=O)N[C@@H](Cc1ccc(O)cc1)C(=O)N2 [Ex. 2] (cyclo(YH[Gly(Dodecyl)]CRA[dP][Dab]RYCYQK[dP]P); disulfide 4-11) | 96 | 24 | 62 |  | 55.8 ± 6 | > 32 | 1.7 | > 13 | 23.4 |  |
| CCCCCCCC(=O)NCCCC[C@@H]1NC(=O)[C@H](Cc2c[nH]cn2)NC(=O)[C@H](Cc2ccc(O)cc2)NC(=O)[C@@H]2CCCN2C(=O)[C@H]2CCCN2C(=O)[C@H](CCCCN)NC(=O)[C@H](CCC(N)=O)NC(=O)[C@H](Cc2ccc(O)cc2)NC(=O)[C@@H]2CSSC[C@H](NC1=O)C(=O)N[C@@H](CO)C(=O)N[C@@H](C)C(=O)N1CCC[C@@H]1C(=O)N[C@@H](CCN)C(=O)N[C@@H](CCCNC(=N)N)C(=O)N[C@@H](Cc1ccc(O)cc1)C(=O)N2 [Ex. 3] (cyclo(YHK(Octanoyl)CSA[dP][Dab]RYCYQK[dP]P); disulfide 4-11) | 86 | 24 | 86 | 24 | 19.4 ± 13 | > 50 | 0.6 | > 45 |  |  |
| CCCCCCCCCCCC(=O)NCC[C@@H]1NC(=O)[C@H]2CCCN2C(=O)[C@H](C)NC(=O)[C@H](CCCNC(=N)N)NC(=O)[C@@H]2CSSC[C@H](NC(=O)[C@H](Cc3ccc(O)cc3)NC(=O)[C@H](CCCNC(=N)N)NC1=O)C(=O)N[C@@H](Cc1ccc(O)cc1)C(=O)N[C@@H](CCC(N)=O)C(=O)N[C@@H](CCCCN)C(=O)N1CCC[C@@H]1C(=O)N1CCC[C@H]1C(=O)N[C@@H](Cc1ccc(O)cc1)C(=O)N[C@@H](Cc1c[nH]cn1)C(=O)N[C@@H](C)C(=O)N2 [Ex. 5] (cyclo(YHACRA[dP][Dab](Lauroyl)RYCYQK[dP]P); disulfide 4-11) | 100 | 24 | 73 | 24 |  | > 43 | 0.3 | > 50 |  | 95.5 ± 12 |
| CCCCCCCCCCCCOc1ccc(C[C@@H]2NC(=O)[C@H](CCCNC(=N)N)NC(=O)[C@H](CCN)NC(=O)[C@H]3CCCN3C(=O)[C@H](C)NC(=O)[C@H](CCCNC(=N)N)NC(=O)[C@@H]3CSSC[C@H](NC2=O)C(=O)N[C@@H](Cc2ccc(O)cc2)C(=O)N[C@@H](CCC(N)=O)C(=O)N[C@@H](CCCCN)C(=O)N2CCC[C@@H]2C(=O)N2CCC[C@H]2C(=O)N[C@@H](Cc2ccc(O)cc2)C(=O)N[C@@H](Cc2c[nH]cn2)C(=O)N[C@@H](C)C(=O)N3)cc1 [Ex. 7] (cyclo(YHACRA[dP][Dab]RY(Dodecyl)CYQK[dP]P); disulfide 4-11) | 67 | 24 | 87 | 24 |  | > 50 | 11.5 | > 35 |  | 59.8 ± 27 |
| CCCCCCCCCC[C@H]1NC(=O)[C@H](Cc2ccc(O)cc2)NC(=O)[C@@H]2CSSC[C@H](NC(=O)[C@H](C)NC(=O)[C@H](Cc3c[nH]cn3)NC(=O)[C@H](Cc3ccc(O)cc3)NC(=O)[C@@H]3CCCN3C(=O)[C@H]3CCCN3C(=O)[C@H](CCCCN)NC1=O)C(=O)N[C@@H](CCCNC(=N)N)C(=O)N[C@@H](C)C(=O)N1CCC[C@@H]1C(=O)N[C@@H](CCN)C(=O)N[C@@H](CCCNC(=N)N)C(=O)N[C@@H](Cc1ccc(O)cc1)C(=O)N2 [Ex. 9] (cyclo(YHACRA[dP][Dab]RYCY[X2]K[dP]P); disulfide 4-11) | 100 | 24 | 76 | 24 | 91.3 ± 19 | > 50 | 2.2 | > 13 |  |  |
